{"source": "patent US7235549B2", "about": "“Benzamide, heteroarylamide and reverse amides” (Pfizer Inc., priority 2001, dated 2007)"}
{"smiles": "O=C(NCCc1ccccc1C(F)(F)F)c1cc(-n2ncc(=O)[nH]c2=O)ccc1Cl", "note": "[Example 48, 2-Chloro-5-(3,5-dioxo-4,5-dihydro-3H-[1,2,4]triazin-2-yl)-N-[2-(2-trifluoromethyl-phenyl)-ethyl]-benzamide]", "values": [{"measurement": "melting point", "value": "148 to 150", "unit": "°C"}]}
